# “Also recorded” adds a separate entry of the source. Like-named read-outs stand apart in the source and are kept apart here.
# Key:
# IFNγ-secreting T cells = experiment: OVA immunization of mice, OVA-specific T cell response by IFNγ ELISPOT; assay type: in vivo, C57BL/6 mice
# Description: (§1) FIGS. 3A-3H. Disruption of the epichaperome using PU-H71 improves OVA-specific T cells response and anti-tumor immune response in a mouse model. (A) C57BL/6 (B6) mice were injected intraperitoneally (i.p.) with PU-H71 (75 mg/kg) n=8 or PBS n=8 on days 0, 3 and 7. On day 1, all mice were immunized subcutaneously (s.c.) with 100 μg OVA emulsified in incomplete Freund's adjuvant (IFA), experimental controls shown in schema. Peripheral blood (PB) was collected on days 0, 5 and 9, and the spleen was collected at the end of the experiment, on day 9. (B, C) T cell immunization against OVA was assessed by measuring IFN[…] release from T cells after exposure with OVA using Elispot assay. Two-tailed T test (D) Anti-OVA IgG in serum was assessed by ELISA. (E) B6 mice were immunized with OVA treated with PU-H71 (75 mg/kg) n=8 or PBS n=8 on days 11, 15 and 18. PB and spleen were collected at the end of the experiment, on day 20. (F) T cell immunization against OVA was assessed by measuring IFN[…] by Elispot assay. […] On day 7 after immunization, mice challenged with OVA-expressing EG.7 tumor cells (H) tumor volume was assessed every 2-3 days using calipers. p values shown for day 13 assessment by one-way ANOVA.
# (§2) The effects of an epichaperome disrupter, PU-H71, were tested on C57BL/6 mice immune responses to ovalbumin (OVA) immunization. OVA-specific T- and B-cell responses were evaluated by ELISPOT and ELISA, respectively. […]
# In vivo: In vivo assessment in immunization model: the well-characterized in vivo immunization model that utilizes chicken ovalbumin (OVA) will be used. […] Antibody production against OVA will be assessed in the peripheral blood (PB) at day 9 to confirm that the immunization took place (40). PU-H71 will be evaluated at different dosing schedules: before OVA administration to assess an effect on priming, shortly after OVA administration to assess an effect on T cell proliferation and polarization, and after the response has been completed (11 days) to evaluate an effect on the already ongoing response (for this cohort, mice will be sacrificed 9 days after PU-H71 treatment). […]
# activated T cells = experiment: Activated human T cells treated with PU-H71: survival and surface phenotype by flow cytometry; assay type: cell-based
# Description: FIGS. 2A-2D. Epichaperomes are formed in activated T cells and their disruption impacts T cell activation phenotype but not survival. (A) Resting T cells from healthy donors were assayed for the abundance of epichaperomes by flow cytometry. (B) Purified T cells activated with anti-CD3/CD28 beads were tested for changes in epichaperome abundance 20 h after activation and compared with resting T cells and MV4-11 as a positive control. n=3, One-way ANOVA ** p<0.002, *** p<0.0002 (C, D) T cells were treated with 1 μM PU-H71 upon activation to assess the effect of epichaperome disruption on survival (C) and cell surface phenotype (CD4, CD8, CD25, CD69, HLA-DR) n=3 *p<0.03 two-tailed T-test (D).
# Thus, epichaperome formation skews the balance of T cell populations and functions towards an immunosuppressive outcome, a balance that can be restored to a cytotoxic function by epichaperome disruptors. This leads to a role of epichaperome disruptors, such as PU-H71, in CAR T cell cytotoxicity and the ability of epichaperome disruptors, such as, PU-H71, to improve the outcomes of AML patients in the post-transplant setting by improving GvL without affecting GvHD.
# NALM6-BLIV cells = experiment: B-ALL NSG mouse model with NALM6-BLIV cells, PU-H71 combined with CART19; assay type: in vivo
# Description: Nalm-6 xenograft: Xenografts will be initiated using CD19^+ B-cell acute lymphoblastic leukemia (B-ALL), Nalm-6 cells expressing luciferase and GFP (BLIV/GFP) transplanted into NSG mice (59). Anti-CD19 CAR T cells (CART19/4-1BB) or non-transduced T cells (NTC) will be administered once engraftment is confirmed by bioluminescence and flow cytometry. Four treatment cohorts will be studied: (1) saline, (2) PU-H71 (75 mg/kg i.p. bi-weekly), (3) CART19/4-1BB, (4) PU-H71 (75 mg/kgi.p. bi-weekly)+CART19/4-1BB. Each cohort will consist of 8 mice, ensuring >80% power at two-sided alpha of 0.05 to detect a standardized effect size of 1.6 in tumor burden and immune cell modulation, and will include both male and female mice. The PU-H71 dose and schedule will be determined based on data (9, 17). Tumor progression will be monitored weekly using bioluminescence imaging, with CAR T cell percentage and phenotype assessed in PB from day 2 onwards and every subsequent week, as published previously (17, 59). Bone marrow (BM) aspirates on day 14 will assess tumor burden and CAR T persistence. At the endpoint, the spleen, BM, and PB will be harvested to determine leukemia burden and CAR T cell phenotype.
# [1] = test system: acute myeloid leukemia (AML); conditions: cited from earlier work; for exacerbation of GvHD in the patient: patient with donor T cell chimerism after failed allo-HSCT; for duration of complete remission: single agent, AML patient with high epichaperome abundance, post-transplant relapse
# [2] = test system: E.G7 (OVA+) lymphoma cells; experiment: Anti-tumor response in OVA-immunized mice challenged with E.G7 lymphoma; assay type: in vivo, C57BL/6 mice
# Description: as §1, with “ANOVA. […]” for “ANOVA.”
# In vivo assessment in an anti-tumor response model: E.G7 cells are OVA-expressing cells derived from the C57BL/6 (H-2b) mouse lymphoma cell line EL4, allowing for the establishment of a syngeneic lymphoma mouse model to evaluate anti-tumor protection after OVA immunization (39). […] At day 7 after immunization, lymphoma cells will be injected subcutaneously into the mice, and tumor growth will be evaluated twice a week using micro calipers. Tumor volume will be determined as mm^3=length×width^2 (41). Survival will be also determined as an endpoint (mice will be euthanized when tumor size reaches 2000 mm^3 or the animals lose more than 10% of weight). Differences in tumor growth and survival will be determined in mice immunized with OVA and PU-H71 compared to the controls OVA+IFA or no immunization. […]
# anti-OVA IgG = experiment: OVA immunization of mice, anti-OVA antibody by ELISA; assay type: in vivo, C57BL/6 mice; conditions: PU-H71 at the time of priming
# Description: as §1, with “PB and spleen were collected at the end of the experiment, on day 20.” left out
# as §2
# Hsp90 = conditions: cited from earlier work
# [3] = test system: NALM6 (CD19+ B-ALL cell line)
# Description: FIGS. 7A-7C. […] (A) Schematic representation. CART19/4-1BB or control T cells were cultured with NALM6 (CD19^+ B-ALL cell line) for 18 h at a E:T ratio of 1:1. (B) Cytotoxicity was evaluated by flow cytometry and represented as relative to the number of dead cells in the control cells (no effector cells). Experiment performed in triplicate, Error bar represents the SEM, significance assessed using ANOVA test. (C) In vivo testing.
# To better understand its effect on human T cells and its potential adjuvant effect during cellular therapy, in vitro and in vivo chimeric antigen receptor (CAR)-T cell (CAR-T cells) phenotype and function in the presence of PU-H71 was tested. […] Finally, the therapeutic effect of the combination of PU-H71 and CART19 was evaluated in a B-ALL NSG mouse model using NALM6-BLIV cells, with bioluminescence imaging and flow cytometry (CART19 and leukemic cells) monitoring.
# To investigate the impact of epichaperome disruption on CAR T cells, CART19/4-1BB was generated and tested. […] Subsequently, the impact of epichaperome disruption on the function of CART19/4-1BB cells was assessed during co-culture with leukemia cells expressing CD19. The cytotoxic effect of CART19/4-1BB cells against Nalm-6 (CD19^+ B-ALL cell line) was measured with or without 1 μM PU-H71 (FIG. 7).
structure (smiles),measurement,setting,value
"CC(C)NCCCn1c(Sc2cc3c(cc2I)OCO3)nc2c(N)ncnc21 [PU-H71, 8-[(6-iodo-1,3-benzodioxol-5-yl)sulfanyl]-9-[3-(propan-2-ylamino)propyl]purin-6-amine]",number of IFNγ-secreting T cells (median),"IFNγ-secreting T cells; PU-H71 75 mg/kg i.p. at the time of priming, OVA immunization, ELISPOT, n=8, controls 42, p=0.0002",126 per million of cells
same,effect on OVA-specific T cell response,IFNγ-secreting T cells; PU-H71 administered once the OVA-specific T cell response was ongoing,no effect
same,impact on T cell phenotype,IFNγ-secreting T cells; PU-H71 at the time of priming,without overt impact; also recorded: without an impact
same,CD4 to CD8 ratio,activated T cells; 1 μM PU-H71 upon activation,increase of CD8^+ cells; also recorded: skewed towards more CD8^+ cells
same,expression of activation marker CD69,activated T cells; 1 μM PU-H71 upon activation,not significantly changed
same,viability of activated T cells,activated T cells; 1 μM PU-H71 upon activation with anti-CD3/CD28 beads,no detrimental effect
same,CART19 numbers in the bone marrow,NALM6-BLIV cells,increases CART19 numbers in the bone marrow
same,in vivo antitumor efficacy of CART19 against NALM6,NALM6-BLIV cells,improves their in vivo antitumor efficacy
same,myelosuppression and drug-related toxicities,[1]; patient treated for >5 yrs,without significant myelosuppression or drug-related extramedullary toxicities
same,exacerbation of GvHD in the patient,[1],did not exacerbate GvHD; also recorded: did not exacerbate these symptoms
same,exacerbation of GvHD in the patient,[1]; listed as Zelavespib,without exacerbation of GvHD
same,exacerbation of GvHD in the patient,[1]; listed as zelavespib,no clinically relevant exacerbation
same,time to complete remission (CR),[1]; single AML patient,≤ 45 days
same,duration of complete remission,[1],over five years
same,duration of complete remission,[1]; listed as Zelavespib,> 5 years
same,duration of complete remission,[1]; listed as zelavespib,over 5 years
same,in vivo anti-tumor immune response / tumor progression,"[2]; OVA-primed mice plus PU-H71, E.G7 challenge",significantly decreases tumor progression; also recorded: improved in vivo anti-tumor immune responses
same,ability to control tumor progression,"[2]; PU-H71 without immunization, n=6",16 days
same,ability to control tumor progression,"[2]; mice immunized against OVA without IFA and treated with PU-H71, OVA alone 16 days, saline 14 days, n=8",18 days
same,impact on anti-OVA antibody levels,anti-OVA IgG,without overt impact; also recorded: without an impact
same,binding preference for Hsp90 form,Hsp90,preferential binding to Hsp90 when it is in the highly integrated complexed form that is the epichaperome
same,in vitro cytotoxicity of CAR-T cells toward NALM6 B-ALL cells,[3],74.66%

# From patent US20250152702A1, “EPICHAPEROME INHIBITION TO IMPROVE T CELL RESPONSES” (priority 2023, published 2025)
